Test results from article PMC12728982, “Multichiral Half-Sandwich Ru(II) and Os(II) Anticancer Complexes Containing a Glutathione Synthesis Inhibitor” (Organometallics, 2025).

Tested on: IGROV-1 cells
Assay: Comet assay (DNA damage in single cells)
Type: cell-based, human
Conditions: IGROV-1, 24 h; 100 μM for Cisplatin and Os-Gly
Protocol: Comet assays were carried out to determine whether the complexes caused DNA damage in single cells. […] Cisplatin DNA-adducts have been shown previously to inhibit DNA migration through electrophoresis presenting as less tail movement. […] Excess dye was removed, and cells were re-suspended in PBS. Samples were analysed by flow cytometry using the BD FACSMelodyTM Cell Sorter (R653880001) and data analysis on FlowJoTM v10 Software (BD Life Sciences).9 2.11 Apoptosis IGROV-1 cells (1 x 106) were seeded in a 6-well plate and incubated for 24 h at 310 K. Stock solutions (200 μM) of the complexes were prepared by dissolving the compound in 5% (v/v) DMSO followed by dilution with DMEM and then diluted to desired concentrations. All complexes (50 μM and 100 μM) were added to the wells and incubated for 24 h. Cell pellets were collected using 0.25% trypsin and centrifuged (500 x g, 5 mins at 277 K). Cell pellets were washed with PBS and then stained with the commercial Apoptosis Detection Kit-FITC Annexin V and PI (BioLegend; San Diego, USA), as per manufacturer's instructions. Briefly, a staining solution of FITC Annexin V (1 unit/100 μL) diluted 1 in 100 and 1 μg/mL PI was added to the cells (30 min, room temperature). Excess dye was removed, and cells were re-suspended in PBS. Samples were analysed by flow cytometry using the BD FACSMelodyTM Cell Sorter (R653880001) and data analysis on FlowJoTM v10 Software (BD Life Sciences).9 2.12 Comet assay IGROV-1 cells (8×10^5 cells per well) were seeded into 6-well plates and incubated for 24 h. Test compounds (50 μM and 100 μM) were added to the wells and incubated at 3 10 K for 24 h. Cells were enzymatically detached using trypsin and cell concentration adjusted to 2×10^4 cells /mL in ice-cold PBS. 0.4 mL of cell suspension was added to 1.2 mL of 1% low melting point agarose in H 2O, then immediately added to microscope slides pre -coated in 1% agarose. […] Twenty comet images per sample were taken by confocal microscopy and analysed by OpenComet. […]

## [(p-cymene)Os(L-BSO)Cl] [Os-LBSO]
  Comet tails vs untreated cells: trend toward longer comet tails but this was not significant
